Results taken from PMC11882969 (Nature Communications, 2025).
Several values for one entry are separate records, joined by “and”; a condition that tells them apart may be missing. Identical values can stand only once. Like-named read-outs stand apart in the source and are kept apart here.

What was measured:
[1] = molecular target: hCB1 (Homo sapiens, UniProt P21554); experiment: bioSensAll ebBRET signaling profiling, hCB1; assay type: cell-based; design: host or cells: HEK293SL cells, transient PEI transfection; conditions: for Gi1 hCB1 response: Gi1 biosensor; for Gi1 hCB1 / GoB hCB1: single replicate values, FigS6a; for EC50: read-out: EC50 [95% CI]; for Emax: normalized to CP-55,940
[2] = molecular target: CB1 (rCB1) (Rattus norvegicus, UniProt P20272); experiment: Radioligand competition binding, [3H]-CP-55,940, rat brain membranes
Sequence of CB1 (rCB1) (P20272 whole entry): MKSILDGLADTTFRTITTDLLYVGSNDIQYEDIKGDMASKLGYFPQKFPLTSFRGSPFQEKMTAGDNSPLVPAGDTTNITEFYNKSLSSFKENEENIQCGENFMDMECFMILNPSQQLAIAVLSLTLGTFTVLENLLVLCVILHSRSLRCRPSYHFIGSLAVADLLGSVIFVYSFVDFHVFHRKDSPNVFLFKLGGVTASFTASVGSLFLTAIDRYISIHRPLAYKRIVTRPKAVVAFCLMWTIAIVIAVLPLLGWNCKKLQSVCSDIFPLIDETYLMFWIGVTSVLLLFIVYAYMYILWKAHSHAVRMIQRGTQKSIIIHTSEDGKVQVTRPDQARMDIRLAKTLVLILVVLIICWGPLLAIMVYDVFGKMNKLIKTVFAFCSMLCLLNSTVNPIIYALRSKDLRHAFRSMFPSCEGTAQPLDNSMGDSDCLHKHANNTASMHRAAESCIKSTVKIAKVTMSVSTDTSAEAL

Sequence of hCB1 (P21554 whole entry): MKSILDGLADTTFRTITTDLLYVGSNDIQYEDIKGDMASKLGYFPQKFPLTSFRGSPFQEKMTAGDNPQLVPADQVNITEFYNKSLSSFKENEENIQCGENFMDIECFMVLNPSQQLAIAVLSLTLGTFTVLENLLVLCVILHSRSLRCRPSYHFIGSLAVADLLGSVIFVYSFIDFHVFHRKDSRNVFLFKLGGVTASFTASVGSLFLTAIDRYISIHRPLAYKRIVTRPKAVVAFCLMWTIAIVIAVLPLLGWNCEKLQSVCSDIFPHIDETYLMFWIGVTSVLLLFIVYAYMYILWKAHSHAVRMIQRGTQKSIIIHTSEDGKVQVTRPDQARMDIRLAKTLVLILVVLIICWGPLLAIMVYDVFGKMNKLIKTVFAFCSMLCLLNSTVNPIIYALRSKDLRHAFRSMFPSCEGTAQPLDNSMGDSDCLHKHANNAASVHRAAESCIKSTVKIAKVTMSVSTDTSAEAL

With `Cc1cc(C(=O)NC(c2ccco2)c2ccco2)nn1-c1cccc(C(F)(F)F)c1` [‘1090] the “Gi1 hCB1 response” value ([1]; Log [Compound] (M) -4.22186) was 110.038, the “Gi1 hCB1 response” value ([1]; Log [Compound] (M) -4.63927) was 112.164 and the “Gi1 hCB1 response” value ([1]; Log [Compound] (M) -5.05788) was 98.6907. For the same compound, the “Gi1 hCB1 response” value ([1]; Log [Compound] (M) -5.47381) was 79.5321, the “Gi1 hCB1 response” value ([1]; Log [Compound] (M) -5.89285) was 73.4668 and the “Gi1 hCB1 response” value ([1]; Log [Compound] (M) -6.31878) was 61.1346. For the same compound, the “Gi1 hCB1 response” value ([1]; Log [Compound] (M) -6.72585) was 69.6395, the “Gi1 hCB1 response” value ([1]; Log [Compound] (M) -7.14267) was 48.8248 and the “Gi1 hCB1 response” value ([1]; Log [Compound] (M) -7.55284) was 35.6645. The “Gi1 hCB1 response” value ([1]; Log [Compound] (M) -8) was 6.211, the “Gi1 hCB1 response” value ([1]; Log [Compound] (M) -8.22186) was 13.1264 and the “Gi1 hCB1 response” value ([1]; Log [Compound] (M) -8.39794) was -25.5487. For the same compound, the “Gi1 hCB1 response” value ([1]; Log [Compound] (M) -8.68787) was -2.72, the “Gi1 hCB1 response” value ([1]; Log [Compound] (M) -9.15521) was -19.4162 and the “Gi1 hCB1 response” value ([1]; Log [Compound] (M) -9.61989) was 5.584. For the same compound, the “Gi1 hCB1 response” value ([1]; Log [Compound] (M) -10.0969) was -17.9838, the “Gi1 hCB1 response” value ([1]; Log [Compound] (M) -10.5529) was 0.2123 and the “Gi1 hCB1 response” value ([1]; Log [Compound] (M) -11.0177) was -1.668. The “Gi1 hCB1 response” value ([1]; Log [Compound] (M) -11.4949) was -1.668, the “Gi1 hCB1 response” value ([1]; Log [Compound] (M) -11.9208) was -2.429 and the “Gi1 hCB1 response” value ([1]; Log [Compound] (M) -12.3979) was -6.524. The “Gi1 hCB1 response” value ([1]; Log [Compound] (M) -12.8861) was -4.734, the “Gi1 hCB1 response” value ([1]; Log [Compound] (M) -13, individual replicate values) was -8.293 and -12.478 and the “Gi1 hCB1” value ([1]; Log [Compound] (M) -4.22186) was 93.2514. For the same compound, the “GoB hCB1” value ([1]; Log [Compound] (M) -4.22186) was 92.9275, the “Gi1 hCB1” value ([1]; Log [Compound] (M) -4.63927) was 80.9336 and the “GoB hCB1” value ([1]; Log [Compound] (M) -4.63927) was 98.7901. For the same compound, the “Gi1 hCB1” value ([1]; Log [Compound] (M) -5.05788) was 80.7948, the “GoB hCB1” value ([1]; Log [Compound] (M) -5.05788) was 84.6911 and the “Gi1 hCB1” value ([1]; Log [Compound] (M) -5.47381) was 75.954. The “GoB hCB1” value ([1]; Log [Compound] (M) -5.47381) was 85.1767, the “Gi1 hCB1” value ([1]; Log [Compound] (M) -5.89285) was 77.9273 and the “GoB hCB1” value ([1]; Log [Compound] (M) -5.89285) was 88.8273. For the same compound, the “Gi1 hCB1” value ([1]; Log [Compound] (M) -6.31878) was 77.4032, the “GoB hCB1” value ([1]; Log [Compound] (M) -6.31878) was 81.2923 and the “Gi1 hCB1” value ([1]; Log [Compound] (M) -6.72585) was 72.1615. The “GoB hCB1” value ([1]; Log [Compound] (M) -6.72585) was 72.8221, the “Gi1 hCB1” value ([1]; Log [Compound] (M) -7.14267) was 54.5866 and the “GoB hCB1” value ([1]; Log [Compound] (M) -7.14267) was 60.3417. For the same compound, the “Gi1 hCB1” value ([1]; Log [Compound] (M) -7.55284) was 37.9676, the “GoB hCB1” value ([1]; Log [Compound] (M) -7.55284) was 40.506 and the “Gi1 hCB1” value ([1]; Log [Compound] (M) -8) was 20.7318. The “GoB hCB1” value ([1]; Log [Compound] (M) -8) was 24.4829, the “Gi1 hCB1” value ([1]; Log [Compound] (M) -8.22186) was 14.9814 and the “GoB hCB1” value ([1]; Log [Compound] (M) -8.22186) was 13.6209. For the same compound, the “Gi1 hCB1” value ([1]; Log [Compound] (M) -8.39794) was 11.266, the “GoB hCB1” value ([1]; Log [Compound] (M) -8.39794) was 8.064 and the “Gi1 hCB1” value ([1]; Log [Compound] (M) -8.68787) was 5.932. The “GoB hCB1” value ([1]; Log [Compound] (M) -8.68787) was 3.406, the “Gi1 hCB1” value ([1]; Log [Compound] (M) -9.15521) was 2.879 and the “GoB hCB1” value ([1]; Log [Compound] (M) -9.15521) was 0.583. For the same compound, the “Gi1 hCB1” value ([1]; Log [Compound] (M) -9.61989) was 1.785, the “GoB hCB1” value ([1]; Log [Compound] (M) -9.61989) was -2.51 and the “Gi1 hCB1” value ([1]; Log [Compound] (M) -10.0969) was 3.897. For the same compound, the “GoB hCB1” value ([1]; Log [Compound] (M) -10.0969) was -0.2442, the “Gi1 hCB1” value ([1]; Log [Compound] (M) -10.5529) was 2.155 and the “GoB hCB1” value ([1]; Log [Compound] (M) -10.5529) was -0.55. For the same compound, the “Gi1 hCB1” value ([1]; Log [Compound] (M) -11.0177) was 2.633, the “GoB hCB1” value ([1]; Log [Compound] (M) -11.0177) was 0.2233 and the “Gi1 hCB1” value ([1]; Log [Compound] (M) -11.4949) was 3.6965. For the same compound, the “GoB hCB1” value ([1]; Log [Compound] (M) -11.4949) was 0.565, the “Gi1 hCB1” value ([1]; Log [Compound] (M) -11.9208) was 1.261 and the “GoB hCB1” value ([1]; Log [Compound] (M) -11.9208) was 2.507. For the same compound, the “Gi1 hCB1” value ([1]; Log [Compound] (M) -12.3979) was 3.666, the “GoB hCB1” value ([1]; Log [Compound] (M) -12.3979) was 1.59 and the “Gi1 hCB1” value ([1]; Log [Compound] (M) -12.8861) was 2.17. The “GoB hCB1” value ([1]; Log [Compound] (M) -12.8861) was 4.557, the “Gi1 hCB1” value ([1]; Log [Compound] (M) -13) was 1.415 and 2.093 and the “GoB hCB1” value ([1]; Log [Compound] (M) -13) was 4.719 and 2.903. The “pEC50 [95% CI]” value ([1]; hCB1 Gi1) was 7.5 [7.3 – 7.5], the “pEC50 [95% CI]” value ([1]; hCB1 GoB) was 7.4 [7.3 – 7.5] and the “pEC50 [95% CI]” value ([1]; hCB1 Gz) was 6.9 [6.5 – 7.4]. The EC50 ([1]; hCB1 Gi1) was 35.6 nM, the EC50 ([1]; hCB1 GoB) was 37.3 nM and the Emax ([1]; read-out: Emax [95% CI], hCB1 Gi1) was 81%. For the same compound, the Emax ([1]; read-out: Emax [95% CI], hCB1 GoB) was 90%, the Emax ([1]; read-out: Emax [95% CI], hCB1 Gz) was 115% and the “pKi [95% CI]” value ([2]; rCB1) was 7.0 [6.7 – 7.4]. It also gave a Ki ([2]; read-out: Ki [95% CI], rCB1, [3H]-CP-55,940) of 90.8 nM.
